Laboratory results: patent US12187720B2, “Compounds for treatment of cancer” (ONCTERNAL THERAPEUTICS, INC., priority 2010, dated 2025)
≈ marks a conversion by molar mass, not a printed value. Where a name gives a salt, the structure may show the parent alone. Read-outs that look alike come from different tables or passages of the source.

How the values were obtained:
A375 = assay: SRB cytotoxicity assay, A375 human melanoma cells; type: cell-based; conditions: read-out: IC50 ± SEM A375
[1] = Metabolic stability in human liver microsomes; conditions: for half-life at 0.5 μM: human, liver microsomes, pH 7.4
[2] = test system: melanoma and prostate cancer cell lines; assay: SRB cytotoxicity, summary or average over melanoma and prostate cancer cell lines; type: cell-based; conditions: for IC50: average of all seven cell lines
[3] = Aqueous solubility, Multiscreen Solubility Filter Plate with LC-MS/MS (PBS pH 7.4); type: physicochemical; conditions: for aqueous solubility: PBS pH 7.4
[4] = Pharmacokinetic study in Sprague-Dawley rats; conditions: for CL (systemic clearance) / Vss (volume of distribution following intravenous dosing): IV, […] (1h, 2r), 5 mg/kg (5Ha, 5Hc); for F (percent oral bioavailability), rat: rats, PO versus IV
LNCaP = assay: SRB cytotoxicity assay, LNCaP prostate cancer cells; type: cell-based, human; conditions: Homo sapiens, LNCaP
Excerpt: (§1) Cells were stained with SRB solution.

DU 145 = assay: SRB cytotoxicity assay, DU 145 prostate cancer cells; type: cell-based; conditions: Homo sapiens
Excerpt: as §1

PC-3 = assay: SRB cytotoxicity assay, PC-3 prostate cancer cells; type: cell-based, human; conditions: Homo sapiens, PC-3
Excerpt: as §1

PPC-1 = assay: SRB cytotoxicity assay, PPC-1 prostate cancer cells; type: cell-based, human; conditions: Homo sapiens, PPC-1
Excerpt: as §1

WM-164 = assay: SRB cytotoxicity assay, WM-164 human melanoma cells; type: cell-based; conditions: Homo sapiens
MDA-MB-435/LCCMDR1 = assay: SRB cytotoxicity assay, multidrug-resistant MDA-MB-435/LCCMDR1 melanoma cells; type: cell-based, human
in vivo [5] = conditions: female, Sprague-Dawley, rat, plasma
[6] = Metabolic stability in mouse liver microsomes; type: in vitro ADME; conditions: mouse, liver microsomes, pH 7.4, Table 20; read-out: Half life in Mouse liver microsome
[7] = Metabolic stability in dog liver microsomes; type: in vitro ADME; conditions: dog, dog liver microsomes, pH 7.4; Table 20; read-out: Half life in Dog liver microsome
in vivo [8] = conditions: male, ICR, mouse, plasma, po, 20 mg/kg
[9] = Metabolic stability in rat liver microsomes; type: in vitro ADME; conditions: rat, liver microsomes, pH 7.4; Table 20; read-out: Half life in Rat liver microsome
DU145/TXR = assay: SRB growth inhibition, paclitaxel-resistant DU145/TXR cells; type: cell-based; conditions: Homo sapiens, DU-145; Table 13A; read-out: inhibitory effects DU145/TXR
[10] = Table 13A, read-out: inhibitory effects LNCaP
[11] = Table 13A, read-out: inhibitory effects DU145
[12] = Table 13A, read-out: inhibitory effects PC3
[13] = Table 13A, read-out: inhibitory effects PPC1
[14] = Table 13B, read-out: inhibitory effects LNCaP
[15] = Table 13B, read-out: inhibitory effects DU145
[16] = Table 13B, read-out: inhibitory effects PC3
[17] = Table 13B, read-out: inhibitory effects PPC1

With “5-Phenyl-2-(3,4,5-trimethoxybenzyl)-1H-imidazole and 4-phenyl-2-(3,4,5-trimethoxybenzyl)-1H-imidazole [102a]” the IC50 (A375; Table 14C) was 10200 ± 392 nM.
In the case of `COc1cc(/C(=N/O)c2csc(-c3ccccc3)n2)cc(OC)c1OC` [2e-cis, (Z)-(2-Phenylthiazol-4-yl)(3,4,5-trimethoxyphenyl)methanone oxime], the “half life in human liver microsome” value [1] is reported as 35 min and the “fold more activity than the comparator” value ([2]; 2e-cis vs 2e-trans, 12jb vs 12kb) is reported as 10 fold.
Compound `COc1cc(-c2csc(-c3ccccc3)n2)cc(OC)c1OC` [2i, 2-Phenyl-4-(3,4,5-trimethoxyphenyl)thiazole] has a half-life at 0.5 μM [1] of 32 min.
For `COc1cc(C(=O)c2csc(-c3ccc(CN)cc3)n2)cc(OC)c1OC` [2r, (2-(4-(Aminomethyl)phenyl)thiazol-4-yl)(3,4,5-trimethoxyphenyl)methanone hydrochloride], the “increase of solubility (fold)” value ([3]; HCl salt versus 1h) was “over 35 fold”.
For `COc1cc(C(=O)c2csc(Nc3ccccc3)n2)cc(OC)c1OC.Cl` [5Ha, (2-(phenylamino)thiazol-4-yl)(3,4,5-trimethoxyphenyl)methanone hydrochloride salt], the “CL (systemic clearance)” value [4] was 17 ± 3 mL/min/kg, the “Vss (volume of distribution following intravenous dosing)” value [4] was 1.4 ± 0.2 L/kg and the “F (percent oral bioavailability), rat” value [4] was 11%.
In the case of `COc1cc(C(=O)c2csc(Nc3ccc(F)cc3)n2)cc(OC)c1OC.Cl` [5Hc, (2-(p-fluorophenylamino)thiazol-4-yl)(3,4,5-trimethoxyphenyl)methanone hydrochloride salt], the IC50 (LNCaP; Table 6, read-out: IC50 ± SEM LNCaP) is reported as 53 nM, the “CL (systemic clearance)” value [4] is reported as 13 ± 2 mL/min/kg and the “Vss (volume of distribution following intravenous dosing)” value [4] is reported as 1.4 ± 0.2 L/kg. The “F (percent oral bioavailability), rat” value [4] was 21%, the IC50 (DU 145; Table 6, read-out: IC50 ± SEM DU 145) was 70 nM and the IC50 (PC-3; Table 6, read-out: IC50 ± SEM PC-3) was 53 nM. For the same compound, the IC50 (PPC-1; Table 6, read-out: IC50 ± SEM PPC-1) was 43 nM.
Compound `COc1cc(C(=O)c2csc(Nc3ccccc3)n2)cc(OC)c1OC` [5a, (2-(phenylamino)thiazol-4-yl)(3,4,5-trimethoxyphenyl)methanone] has an aqueous solubility [3] of 15 µg/mL (≈ 40.5 µM).
In the case of `COc1cc(C(=O)c2csc(Nc3ccc(F)cc3)n2)cc(OC)c1OC` [5c, (2-(p-fluorophenylamino)thiazol-4-yl)(3,4,5-trimethoxyphenyl)methanone], the aqueous solubility [3] is reported as 19 µg/mL (≈ 48.9 µM).
Compound `COc1ccc(-c2nc(C(=O)c3ccc(F)cc3)cn2S(=O)(=O)c2ccccc2)cc1` [11cb, (4-fluorophenyl)(2-(4-methoxyphenyl)-1-(phenylsulfonyl)-1H-imidazol-4-yl)methanone] has an IC50 (WM-164; WM164, 48 h, Table 13, 48 h, read-out: IC50 ± SEM WM164 (converted)) of 43 nM and an IC50 [2] of 43 nM.
Compound `O=C(c1ccc(F)cc1)c1cn(S(=O)(=O)c2ccccc2)c(-c2ccc(Cl)cc2)n1` [11fb, (2-(4-chlorophenyl)-1-(phenylsulfonyl)-1H-imidazol-4-yl)(4-fluorophenyl)methanone] has an IC50 (MDA-MB-435/LCCMDR1; Homo sapiens, Table 14A, multidrug-resistant cell line, n = 3, read-out: IC50 ± SEM MDA-MB-435/LCC6MDR1) of 35 ± 3 nM, a resistance index (MDA-MB-435/LCCMDR1; IC50 on MDA-MB-435/LCC6MDR1 divided by IC50 on MDA-MB-435) of 0.7 and a resistance index (MDA-MB-435/LCCMDR1; MDA-MB-435/LCCMDR1 versus MDA-MB-435) of 0.7. For the same compound, the IC50 [2] was 72 nM.
`COc1cc(C(=O)c2c[nH]c(-c3ccc(Cl)cc3)n2)cc(OC)c1OC` [12fa, (2-(4-chlorophenyl)-1H-imidazol-4-yl)(3,4,5-trimethoxyphenyl)methanone] gave a half-life at 0.5 μM [1] of 56 min, a bioavailability (in vivo [5]; oral) of 35% and a bioavailability (in vivo [5]; po, 10 mg/kg) of 35%. It also gave a half-life at 0.5 μM [6] of 23 min, a half-life at 0.5 μM [7] of 26 min and a bioavailability (in vivo [8]) of 62%. It also gave an IC50 [2] of 43 nM and a half-life at 0.5 μM [9] of 46 min.
Compound `CN(C)c1ccc(-c2nc(C(=O)c3ccc(F)cc3)c[nH]2)cc1` [12gb, (2-(4-(dimethylamino)phenyl)-1H-imidazol-4-yl)(4-fluorophenyl)methanone] has an IC50 (WM-164; WM164, 48 h, Table 12, 48 h, read-out: IC50 ± SEM WM164 (converted)) of 62 ± 8 nM and an IC50 (A375; Homo sapiens, A-375, 48 h, Table 12, 48 h) of 56 ± 7 nM.
Work on `O=C(c1ccc(F)cc1)c1c[nH]c(-c2ccc(O)cc2)n1` [12kb] yielded an IC50 (A375; Table 12, 48 h) of 10000 nM.
For `COc1cc(C(=O)c2csc(-c3ccc4[nH]ccc4c3)n2)cc(OC)c1OC` [66a], the aqueous solubility [3] was 3.8 µg/mL (≈ 9.63 µM).
Work on `COc1cc(C(=O)c2nc(-c3ccc(C)cc3)c[nH]2)cc(OC)c1OC` [70f, (4-p-tolyl-1H-imidazol-2-yl)(3,4,5-trimethoxyphenyl)methanone] yielded an IC50 (LNCaP; [10]) of 13 nM and an IC50 (DU145/TXR) of 21 nM.
Work on `COc1cc(C(=O)c2nc(-c3ccc(O)cc3)c[nH]2)cc(OC)c1OC` [70i, (4-(4-hydroxyphenyl)-1H-imidazol-2-yl)(3,4,5-trimethoxyphenyl)methanone] yielded an IC50 (LNCaP; [10]) of 219 nM, an IC50 (DU 145; [11]) of 518 nM and an IC50 (PC-3; [12]) of 155 nM. The IC50 (PPC-1; [13]) was 122 nM.
In the case of `COc1cc(C(=O)c2nc(-c3ccccc3)c(C)[nH]2)cc(OC)c1OC` [70j, (5-methyl-4-phenyl-1H-imidazol-2-yl)(3,4,5-trimethoxyphenyl)methanone], the IC50 (LNCaP; [10]) is reported as 938 nM, the IC50 (DU 145; [11]) is reported as 2000 nM and the IC50 (PC-3; [12]) is reported as 1620 nM. For the same compound, the IC50 (PPC-1; [13]) was 860 nM.
With `CCc1[nH]c(C(=O)c2cc(OC)c(OC)c(OC)c2)nc1-c1ccccc1` [70k, (5-ethyl-4-phenyl-1H-imidazol-2-yl)(3,4,5-trimethoxyphenyl)methanone] the IC50 (LNCaP; [10]) was 2030 nM, the IC50 (DU 145; [11]) was 5080 nM and the IC50 (PC-3; [12]) was 3650 nM. It also gave an IC50 (PPC-1; [13]) of 2080 nM.
In the case of `CCCc1[nH]c(C(=O)c2cc(OC)c(OC)c(OC)c2)nc1-c1ccccc1` [70l, (4-phenyl-5-propyl-1H-imidazol-2-yl)(3,4,5-trimethoxyphenyl)methanone], the IC50 (LNCaP; [10]) is reported as 3090 nM, the IC50 (DU 145; [11]) is reported as 16400 nM and the IC50 (PC-3; [12]) is reported as 12400 nM. It also gave an IC50 (PPC-1; [13]) of 11400 nM.
In the case of `O=C(c1ccc(F)cc1)c1nc(-c2ccc(F)cc2)c[nH]1` [70r, (4-fluorophenyl)(4-(4-fluorophenyl)-1H-imidazol-2-yl)methanone], the IC50 (LNCaP; [14]) is reported as greater than 50000 nM, the IC50 (DU 145; [15]) is reported as greater than 50000 nM and the IC50 (PC-3; [16]) is reported as greater than 50000 nM. The IC50 (PPC-1; [17]) was greater than 50000 nM.
For `O=C(c1ccc(Cl)cc1)c1nc(-c2ccc(Cl)cc2)c[nH]1` [70s, (4-chlorophenyl)(4-(4-chlorophenyl)-1H-imidazol-2-yl)methanone], the IC50 (LNCaP; [14]) was greater than 50000 nM, the IC50 (DU 145; [15]) was greater than 50000 nM and the IC50 (PC-3; [16]) was greater than 50000 nM. For the same compound, the IC50 (PPC-1; [17]) was greater than 50000 nM.
With `O=C(c1ccc(C(F)(F)F)cc1)c1nc(-c2ccc(C(F)(F)F)cc2)c[nH]1` [70u, (4-(trifluoromethyl)phenyl)(4-(4-(trifluoromethyl)phenyl)-1H-imidazol-2-yl)methanone] the IC50 (LNCaP; [14]) was greater than 50000 nM, the IC50 (DU 145; [15]) was greater than 50000 nM and the IC50 (PC-3; [16]) was greater than 50000 nM. The IC50 (PPC-1; [17]) was greater than 50000 nM.
`Cc1ccc(C(=O)c2nc(-c3ccc(C)cc3)c[nH]2)cc1` [70v, p-tolyl(4-p-tolyl-1H-imidazol-2-yl)methanone] showed an IC50 (LNCaP; [14]) of 3760 nM, an IC50 (DU 145; [15]) of 6540 nM and an IC50 (PC-3; [16]) of 5160 nM. The IC50 (PPC-1; [17]) was 2400 nM.
Work on `COc1ccc(C(=O)c2nc(-c3ccc(OC)cc3)c[nH]2)cc1` [70w, (4-methoxyphenyl)(4-(4-methoxyphenyl)-1H-imidazol-2-yl)methanone] yielded an IC50 (LNCaP; [14]) of 6410 nM, an IC50 (DU 145; [15]) of 9390 nM and an IC50 (PC-3; [16]) of 23400 nM. For the same compound, the IC50 (PPC-1; [17]) was 38200 nM.
`COc1cc(-c2c[nH]c(C(=O)c3ccc(Br)cc3)n2)cc(OC)c1OC` [70z, 4-bromophenyl(4-(3,4,5-trimethoxyphenyl)-1H-imidazol-2-yl)methanone] showed an IC50 (LNCaP; [14]) of 131 nM, an IC50 (DU 145; [15]) of 430 nM and an IC50 (PC-3; [16]) of 371 nM. For the same compound, the IC50 (PPC-1; [17]) was 107 nM.
`COc1cc(Cc2nc(-c3ccccc3)c(C)[nH]2)cc(OC)c1OC` [102b, 5-methyl-4-phenyl-2-(3,4,5-trimethoxybenzyl)-1H-imidazole] showed an IC50 (A375; Homo sapiens, A-375, Table 14C) greater than 50000 nM.
`COc1ccc(C(=O)n2ccnc2-c2ccc(F)cc2)cc1` [compound 24] showed an IC50 (LNCaP; Table 6A, read-out: IC50 LNCaP) greater than 10000 nM, an IC50 (DU 145; Table 6A, read-out: IC50 DU 145) greater than 10000 nM and an IC50 (PC-3; Table 6A, read-out: IC50 PC-3) greater than 10000 nM. It also gave an IC50 (PPC-1; Table 6A, read-out: IC50 PPC-1) greater than 10000 nM.
Compound `COc1cc(C(=O)c2csc(-c3ccccc3)n2)cc(OC)c1O` [compound 34] has an IC50 (LNCaP; Table 6A, read-out: IC50 LNCaP) greater than 10000 nM and an IC50 (WM-164; WM164, Table 6A, read-out: IC50 WM164) greater than 10000 nM.
